# Ends that are not written are not given here.
# Experiments:
# [1] = test system: 4T1 cells; assay: JC-1 mitochondrial membrane potential imaging; type: cell-based, murine; conditions: 100 μM CKS1, live cell imaging, 25 cells, representative of N = 3
# Method: (§1) Fluorescence labeling of cells was performed by seeding 5.0 × 10^4 4T1 cells in a 35mm dish on a collagen-coated No. 1.5 coverslip with a 14 mm glass diameter (MatTek, Ashland, MA). After overnight incubation, the cells were washed once with serum free media and replaced with fresh serum free media. For cell membrane labeling, NR12S (R&D Systems, Minneapolis, MN, #7509) was added at a final concentration of 0.3 μM and incubated for 30 minutes. For cell cytosol labeling, Calcein-AM (Thermo Fisher Scientific, C1430) was added at a final concentration of 5 μg/mL and incubated for 10 minutes. For mitochondrial membrane labeling, JC-1 (Thermo Fisher Scientific, T3168) was added at a final concentration of 10 μg/mL and incubated for 10 minutes. For nuclear staining, Hoechst 33342 (Cell Signaling Technology, #4082) was added at a final concentration of 5 μg/mL and incubated for 10 minutes.
# (§2) Cells were imaged on either a Zeiss LSM 700 or a 3i spinning disk confocal microscope. Samples were imaged with optimized microscope settings. Z-stack, time-lapse, or multi-channel acquisition settings were adjusted based on the experimental requirements. Images were then acquired with the appropriate excitation and emission wavelengths for each fluorophore.
# (§3) Image analysis was performed using Fiji software. For each image/video, the brightness and the contrast were adjusted. […]
# [2] = test system: human umbilical vein endothelial cells (HUVECs); assay: LDH release (CyQUANT LDH cytotoxicity assay); type: cell-based; conditions: indicated concentration of CKS1, 6 hours, N = 3
# Method: (§5) 1.0 × 10^4 cells were seeded in a 96-well plate and incubated overnight. The cells were washed once, and the medium was replaced with serum free media. Cells were treated with CKS1 for the indicated time and concentration. CyQUANT LDH cytotoxicity assay (Thermo Fisher Scientific) was used following the manufacturer’s instructions to measure the release of LDH. LDH release was normalized to the amount of LDH released from cells treated with lysis buffer.
# [3] = test system: triple-negative breast cancer (TNBC); conditions: triple-negative breast cancer (TNBC) model; cited from earlier work
# Excerpt: (§4) Chemokinostatin-1 (CKS1) is a 24-mer peptide originally discovered as an anti-angiogenic peptide. Karagiannis and Popel developed a computational method to identify anti-angiogenic sequences contained in the human proteome and discovered common sequences conserved within protein domains contained in angiogenesis-related proteins. CKS1 is derived from a sequence shared in the CXC chemokine family.
# [4] = test system: glioma; conditions: glioma model; cited from earlier work
# Excerpt: as §4
# [5] = test system: 4T1 cells; assay: Transmission electron microscopy of cell morphology; type: cell-based, murine; conditions: 100 μM CKS1, 30 minutes
# Method: Samples were fixed in 2.5% glutaraldehyde, 3 mM MgCl2 in 0.1 M sodium cacodylate buffer, pH 7.2 overnight at 4°C. After buffer rinse, samples were postfixed in 2% osmium tetroxide in 0.1 M sodium cacodylate for at least one hour (no more than two) on ice in the dark. After osmium, samples were rinsed in 0.1 M Maleate buffer (pH 6.2), followed by uranyl acetate in 0.1 M Maleate (0.22 μm filtered, 1 h, dark), dehydrated in a graded series of ethanol and embedded in Epon (PolySci) resin. Samples were polymerized at 60°C overnight. Thin sections, 60 to 90 nm, were cut with a diamond knife on a Leica UCT ultramicrotome and picked up with 2×1 mm Formvar copper slot grids. Grids were stained with 2% uranyl acetate (aq.) followed by lead citrate and observed with a Hitachi 7600 TEM at 80 kV. Images were captured with an AMT CCD XR80 (8-megapixel camera - side mount AMT XR80 – high-resolution highspeed camera).
# [6] = test system: 4T1 cells; assay: Fluorescence live cell imaging, calcein-AM stained cytosol; type: cell-based, murine; conditions: 100 μM CKS1, live cell imaging
# Method: as §1, §2, §3
# [7] = test system: 4T1 cells; assay: xCELLigence real-time cell viability assay (RTCA); type: cell-based, murine; conditions: serum free media, representative of N = 3
# Method: 3,000 cells were seeded in the wells of an xCELLigence RTCA E-plate 16 (Agilent, Santa Clara, CA). After the cells adhered to the plate, the media was replaced with serum free media, and the cells were treated with CKS1 at the indicated concentrations. The viability of the cells was monitored using the xCELLigence RTCA analyzer (Agilent).
# [8] = test system: caspase-3 in 4T1 cells; assay: Caspase-3 activity assay in cell lysate; type: cell-based, murine; conditions: 100 μM CKS1, indicated time, fluorescence divided by protein concentration, N = 3
# Method: 1.0 × 10^4 4T1 cells were seeded in 96-well plates and incubated overnight. After CKS1 treatment, the cells were lysed using lysis buffer (Cell Signaling Technology, #7018). The activity of caspase-3 in the cell lysate was quantified using the caspase-3 activity assay kit (Cell Signaling Technology, #5723) following the manufacturer’s instructions. Briefly, the cell lysate was incubated with a substrate of caspase-3 which was designed to emit fluorescence when cleaved. After incubation, the fluorescence was measured using a plate reader. The protein concentration of the cell lysate was quantified using the DC protein assay kit (Bio-Rad, Hercules, CA). The caspase-3 activity was divided by the protein concentration to obtain the caspase-3 activity per μg/mL protein in the cell lysate.
# [9] = test system: NIH/3T3 normal fibroblasts; assay: LDH release (CyQUANT LDH cytotoxicity assay); type: cell-based, murine; conditions: NIH/3T3 fibroblasts, indicated concentration of CKS1, 6 hours; N = 3
# Method: as §5
substance,measurement,setting,value
"NGRKACLNPASPIVKKIIEKMLNS-NH2 [CKS1, Chemokinostatin-1]",Mitochondrial membrane potential (JC-1 green/red fluorescence),[1],rapidly diminishes the mitochondrial membrane potential
same,Cell death (release of LDH) in non-cancerous cells,[2],did not induce cell death
same,Suppression of tumor growth,[3],efficacy in suppressing tumor growth was demonstrated
same,Suppression of tumor growth,[4],efficacy in suppressing tumor growth was demonstrated
same,Cell membrane integrity by electron microscopy,[5],ruptured
same,Nuclear membrane integrity by electron microscopy,[5],not ruptured
same,Events after treatment in calcein-AM stained cells,[6],influx of the surrounding media into the cells
same,Time after treatment at which cell death (reduction in cell index) was observed,"[7]; 4T1 cells, 3,000 cells per well",≤ 1 h
same,Dose dependence of cell death (reduction in cell index),[7]; 4T1 cells,dose-dependent
same,Activity of caspase-3,[8],increased
same,Cell death (release of LDH) in non-cancerous cells,[9],did not induce cell death

# Source: publication PMC10602061 (Research Square, 2023)
